Data on 1 molecule can be found in ChEMBL document CHEMBL2176989, “Design, synthesis, and pharmacological evaluation of piperidin-4-yl amino aryl sulfonamides: novel, potent, selective, orally active, and brain penetrant 5-HT₆ receptor antagonists” (J Med Chem, 2012).

Data set [1] is described as follows: Half life in Wistar rat at 5 mg/kg, iv. It is filed as ADME, organism-based. On the set-up: dose 5 mg/kg, route intravenous. The conditions noted are these: in vivo.
Data set [2] concerns the target T1, Alpha-1B adrenergic receptor (Homo sapiens, UniProt P35368).
T1 sequence (P35368 whole entry): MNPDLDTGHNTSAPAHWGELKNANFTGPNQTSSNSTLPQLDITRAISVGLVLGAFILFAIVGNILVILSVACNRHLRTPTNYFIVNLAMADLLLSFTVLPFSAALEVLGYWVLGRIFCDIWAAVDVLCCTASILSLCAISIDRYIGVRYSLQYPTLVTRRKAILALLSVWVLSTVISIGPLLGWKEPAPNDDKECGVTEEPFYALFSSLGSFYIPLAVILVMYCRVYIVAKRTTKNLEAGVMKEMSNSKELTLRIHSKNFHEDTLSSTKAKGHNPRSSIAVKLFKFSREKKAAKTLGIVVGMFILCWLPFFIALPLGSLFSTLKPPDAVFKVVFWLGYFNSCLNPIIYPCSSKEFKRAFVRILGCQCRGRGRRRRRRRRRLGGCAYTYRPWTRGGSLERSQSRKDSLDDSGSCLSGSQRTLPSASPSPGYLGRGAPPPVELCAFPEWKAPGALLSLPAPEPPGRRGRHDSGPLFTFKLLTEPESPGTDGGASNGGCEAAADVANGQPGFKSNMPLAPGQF
In words: Binding affinity to adrenergic alpha1B receptor.

The test system of data set [3] is Rattus norvegicus. In words: Procognitive activity in Wistar rat assessed as reversal of time delay-induced memory deficit at 0.3 mg/kg, po by object recognition test. The format is functional, organism-based. On the set-up: dose 0.3 mg/kg.
Data set [4] in a line: Apparent volume of distribution in Wistar rat at 5 mg/kg, iv. It is filed as ADME, organism-based. Also on record: dose 5 mg/kg, route intravenous. The conditions noted are these: in vivo, read-out: Vz.
The nature of data set [5]: Half life in beagle dog at 1 mg/kg, iv. It is filed as ADME, organism-based, Canis lupus familiaris. On the set-up: dose 1 mg/kg, route intravenous. The note with it: in vivo.
The subject of data set [6] is Rattus norvegicus. In words: Procognitive activity in sc dosed Wistar rat assessed as increase in acetylcholine level in medial prefrontal cortex administered as an acute dose measured up to 4 hrs by brain microdialysis method. The format is functional, organism-based.
Data set [7] is described as follows: Drug metabolism in Wistar rat liver microsomes at 2.5 uM at 30 mins by LC-MS/MS analysis. The note with it: read-out: Drug metabolism. It is filed as ADME, Microsome.

Calls of active or inactive are those of the source. The rule behind the calls is not given here.

For `COc1ccc(S(=O)(=O)n2cc(C)c3cc(Cl)cnc32)cc1NC1CCN(C)CC1`, the figures for the half-life in data set [1] and in data set [5] were 1.7 h and 2.3 h, respectively. The affinity in data set [2] corresponds to a Ki of 3.79 µM. For the same molecule, the outcome in the data set with Rattus norvegicus [3] was Active. In addition, in data set [4], the Vd is 10 L/kg. Also, the Activity entry with Rattus norvegicus [6] was “Dose-dependent effect”. In addition, the metabolised at 0.5 h, 2.5 µM in data set [7] came to 76%.
